Test results: patent US7214669B2, “Tetracycline derivatives and methods of use thereof” (Tetragenex Pharmaceuticals, Inc., priority 2001, dated 2007)

Columns and labels:
[1] = biological target: Human recombinant MMP14 (Homo sapiens, UniProt P50281); test: MMP14 (MTI-MMP) inhibition, 14C collagen release; assay type: biochemical; settings: 35° C., 15 hours; read-out: MMP-14 inhibitory activity, IC50
Description: Protocol for Measuring MMP14 (MTI-MMP) Inhibition by Tetracycline Derivatives
MMP14 activity was determined by the release of soluble ^14C labelled collagen fragments from ^14C acetylated rat skin type I collagen (Methods in Enzymology 80 711, 1981).
• 100 μg ^14C labelled collagen (5–6000 dpm) • 50 mM Tris HCL pH 7.9 • 15 mM CaCl2 0.02% azide • Human recombinant MMP14 50–100 nM • ±Tetracycline (up to 1 mM) in a total volume of 300 μl.
Incubations were at 35° C. for 15 hours. Uncleaved collagen fibrils (which form within the first 10 minutes) were removed by centrifugation at 10,000 g 4° C. 10 minutes 200 μl supernatant were counted in Packard Opti Phase Supermix scintillation fluid using a scintillation counter. Only data derived from within the linear part of the assay (10–70% lysis of the collagen) were utilized. Based on percentage inhibition of the activity of MMP1 alone by a range of concentrations of each sample, the IC50 value for each tetracycline was calculated.

[2] = biological target: T1, Human recombinant MMP1 (Homo sapiens, UniProt P03956); test: MMP1 (Collagenase-1) inhibition, 14C collagen release; assay type: biochemical; settings: 35° C., 5 hours; read-out: MMP-1 inhibitory activity, IC50
T1 sequence (P03956 100-469): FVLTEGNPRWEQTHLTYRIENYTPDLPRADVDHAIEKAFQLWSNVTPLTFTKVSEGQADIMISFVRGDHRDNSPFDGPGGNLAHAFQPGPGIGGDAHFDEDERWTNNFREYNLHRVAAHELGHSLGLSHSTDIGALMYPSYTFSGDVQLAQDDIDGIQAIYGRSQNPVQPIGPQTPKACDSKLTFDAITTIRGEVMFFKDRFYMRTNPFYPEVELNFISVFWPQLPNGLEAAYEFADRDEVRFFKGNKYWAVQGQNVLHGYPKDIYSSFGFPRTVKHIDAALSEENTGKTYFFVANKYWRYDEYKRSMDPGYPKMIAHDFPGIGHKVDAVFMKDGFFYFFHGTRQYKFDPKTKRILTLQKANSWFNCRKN
Description: Protocol for Measuring MMP1 (Collagenase-1) Inhibition by Tetracycline Derivatives
MMP1 activity was determined by the release of soluble ^14C labelled collagen fragments from ^14C acetylated rat skin type I collagen (Methods in Enzymology 80 711, 1981).
• 100 μg ^14C labelled rat skin type I collagen (5–6000 dpm) • 50 mM Tris HCl pH 7.9 • 15 mM CaCl2 0.02% azide • Human recombinant MMP1 3–4 nM • ±Tetracycline (up to 1 mM) in a total volume of 300 μl.
Incubations were at 35° C. for 5 hours. Uncleaved collagen fibrils (which form within the first 10 minutes) were removed by centrifugation at 10,000 g, 4° C., 10 minutes. 200 μl supernatant were counted in Packard Opti Phase Supermix scintillation fluid using a scintillation counter. Only data derived from within the linear part of the assay (10–70% lysis of the collagen) were utilized. Based on percentage inhibition of the activity of MMP1 alone by a range of concentrations of each sample, the IC50 value for each tetracycline was calculated by linear regression analysis.

[3] = test system: MDA-MB-231 human breast cancer cells; test: Membrane Invasion Culture System (MICS) chemo-invasion assay; assay type: cell-based; settings: 24 hours, + = increased invasiveness
In short: (§1)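 Fifty thousand cells were seeded above a 35 μm laminin/collagen IV/gelatin barrier on a 10 μm-pore filter, with serum-free RPMI plus 50% fibroblast-conditioned medium below as chemoattractant. Compound at 1, 10 or 25 μg/ml, or DMSO vehicle, was present for 24 h. Invaded cells were collected, Wright-stained and counted over 5 fields.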

[4] = test system: RPMI-8226 human myeloma cancer cells; test: as above; assay type: cell-based; settings: 24 hours, + = increased invasiveness
In short: as §1

[5] = test system: C8161 human melanoma cells; test: as above; assay type: cell-based; settings: 24 hours, + = increased invasiveness
In short: as §1

[6] = test system: PC-3 ML human prostate cancer cells; test: as above; assay type: cell-based; settings: 24 hours, + = increased invasiveness
In short: as §1

[7] = biological target: Human recombinant MMP3 (Homo sapiens, UniProt P08254); test: MMP3 (Stromelysin 1) inhibition, 14C casein release; assay type: biochemical; settings: 37° C., 16 hours; read-out: MMP-3 inhibitory activity, IC50
[8] = biological target: T2, MMP2 (Gelatinase A) (Homo sapiens, UniProt P08253); test: MMP2 (Gelatinase A) inhibition, 14C gelatin release; assay type: biochemical; settings: 37° C., 16 hours; read-out: MMP-2 inhibitory activity, IC50
T2 sequence (P08253 110-660): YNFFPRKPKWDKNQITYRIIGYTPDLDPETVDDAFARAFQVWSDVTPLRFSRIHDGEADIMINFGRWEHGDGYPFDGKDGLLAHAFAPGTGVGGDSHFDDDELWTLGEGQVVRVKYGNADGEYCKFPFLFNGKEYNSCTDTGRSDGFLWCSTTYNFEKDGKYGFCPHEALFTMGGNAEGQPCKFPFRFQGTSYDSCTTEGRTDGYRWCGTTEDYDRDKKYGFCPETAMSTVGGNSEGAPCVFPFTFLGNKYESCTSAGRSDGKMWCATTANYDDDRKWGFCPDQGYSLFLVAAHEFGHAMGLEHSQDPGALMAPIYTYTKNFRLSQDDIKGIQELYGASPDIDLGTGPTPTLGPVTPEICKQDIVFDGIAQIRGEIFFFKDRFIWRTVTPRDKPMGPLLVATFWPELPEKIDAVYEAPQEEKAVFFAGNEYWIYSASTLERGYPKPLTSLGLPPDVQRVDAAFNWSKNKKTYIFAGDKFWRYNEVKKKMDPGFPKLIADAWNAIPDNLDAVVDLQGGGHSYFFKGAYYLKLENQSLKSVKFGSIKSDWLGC
Description: Protocol for Measuring MMP2 (Gelatinase A) Inhibition
MMP2 activity was determined by the release of trichloracetic acid, TCA, soluble fragments from ^14C acetylated rat skin type I gelatin (Methods in Enzymology 248, 470, 1995. Biochem. J. 195, 1981)
• 100 μg ^14C labelled gelatin (type I collagen denatured 60° C. 20 min) • 50 mM Tris HCl pH 7.9 • 15 mM CaCl2, 0.02% azide • Human recombinant MMP1, 0.1–0.5 nM • ±Tetracycline (up to 1 MM) in a total volume of 250 μl.
Incubations were set at 37° C. for 16 hours. The reaction was stopped by cooling the incubations and addition of 50 μl cold 90% (w/v) trichloracetic acid with careful mixing. TCA precipitation was allowed to proceed for 15 minutes at 4° C. prior to cetrifugation at 10,000 g for 10 minutes at 4° C. 200 μl of the TCA supernatant was taken for the determination of radioactive content by scintillation counting (Packard Opti Phase Supermix scintillation fluid). Only data derived from within the linear part of the assay (10–70% lysis) were utilized. The percentage inhibition of MMP2 by each tetracycline concentration was plotted to derive the IC50 value, using linear regression analysis.

[9] = biological target: Human recombinant MMP9 (Homo sapiens, UniProt P14780); test: MMP9 (Gelatinase B) inhibition, 14C gelatin release; assay type: biochemical; settings: 37° C., 16 hours; read-out: MMP-9 inhibitory activity, IC50
[10] = biological target: T3, Human recombinant MMP7 (Homo sapiens, UniProt P09237); test: MMP7 (Matrilysin) inhibition, 14C casein release; assay type: biochemical; settings: 37° C., 16 hours; read-out: MMP-7 inhibitory activity, IC50
T3 sequence (P09237 95-267): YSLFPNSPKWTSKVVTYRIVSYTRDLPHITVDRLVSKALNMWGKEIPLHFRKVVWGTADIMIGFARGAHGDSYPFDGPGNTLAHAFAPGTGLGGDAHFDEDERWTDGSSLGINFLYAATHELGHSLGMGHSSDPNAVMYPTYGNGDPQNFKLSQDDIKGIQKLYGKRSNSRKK
Description: MMP7 activity was determined by the release of trichloracetic acid, TCA, soluble fragments from ^14C acetylated β casein (Sigma) as described in Methods in Enzymology 248, 451 (1995).
• 100 μg ^14C casein (7000 dpm) • 50 mM Tris HCl, pH 7.9 • 15 mM CaCl2, 0.02% azide • Human recombinant MMP7, 1.5 nM • ±tetracycline (up to 1 mM) in a total volume of 250 μl.
Incubations were at 37° C. for 16 hours. The incubation was stopped by the addition of 500 μl cold 18% TCA and standing on ice for 15 minutes. TCA precipitates were removed by centrifugation at 10,000 g for 10 minutes at 4° C., and 200 μl supernatant was taken for scintillation counting. Only data derived from within the linear part of the assay (10–60% lysis) were utilized. The percentage inhibition of MMP7 by each concentration of the candidate tetracycline were plotted to derive the IC50 value.

Sequence of Human recombinant MMP3 (P08254 100-477): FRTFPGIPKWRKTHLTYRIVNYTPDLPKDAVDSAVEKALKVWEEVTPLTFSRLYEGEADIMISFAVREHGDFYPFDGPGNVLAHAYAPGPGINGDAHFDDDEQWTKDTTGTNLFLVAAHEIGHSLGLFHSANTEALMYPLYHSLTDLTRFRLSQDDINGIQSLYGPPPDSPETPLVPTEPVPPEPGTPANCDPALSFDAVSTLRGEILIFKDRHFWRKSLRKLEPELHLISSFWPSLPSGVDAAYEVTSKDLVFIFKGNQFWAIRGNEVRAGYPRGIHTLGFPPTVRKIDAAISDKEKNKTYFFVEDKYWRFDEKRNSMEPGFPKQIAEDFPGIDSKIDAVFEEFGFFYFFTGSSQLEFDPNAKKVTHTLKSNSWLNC
Sequence of Human recombinant MMP9 (P14780 94-707): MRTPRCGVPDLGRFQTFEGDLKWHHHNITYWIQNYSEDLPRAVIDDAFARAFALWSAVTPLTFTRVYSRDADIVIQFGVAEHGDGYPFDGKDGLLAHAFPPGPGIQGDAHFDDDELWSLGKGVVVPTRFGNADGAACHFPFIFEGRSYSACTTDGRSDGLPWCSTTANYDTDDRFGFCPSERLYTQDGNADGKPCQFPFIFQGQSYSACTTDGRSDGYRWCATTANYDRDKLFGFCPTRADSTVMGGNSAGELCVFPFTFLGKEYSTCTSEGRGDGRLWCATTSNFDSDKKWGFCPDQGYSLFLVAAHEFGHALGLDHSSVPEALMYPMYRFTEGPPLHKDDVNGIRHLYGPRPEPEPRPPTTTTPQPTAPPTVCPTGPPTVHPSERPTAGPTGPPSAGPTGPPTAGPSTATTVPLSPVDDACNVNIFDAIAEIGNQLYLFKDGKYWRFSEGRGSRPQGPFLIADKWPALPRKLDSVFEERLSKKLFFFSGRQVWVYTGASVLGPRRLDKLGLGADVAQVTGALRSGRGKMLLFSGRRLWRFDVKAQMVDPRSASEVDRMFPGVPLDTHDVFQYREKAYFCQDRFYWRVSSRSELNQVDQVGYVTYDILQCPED

SMILES	IC50 [1] [µM]	IC50 [2] [µM]	percent inhibition, MDA-MB-231 (Breast) ([3]; 1 ug/mL)	percent inhibition, MDA-MB-231 (Breast) ([3]; 10 ug/mL)	percent inhibition, MDA-MB-231 (Breast) ([3]; 25 ug/mL)	percent inhibition, RPMI-8226 (Multiple Myeloma) ([4]; 1 ug/mL)	percent inhibition, RPMI-8226 (Multiple Myeloma) ([4]; 10 ug/mL)	percent inhibition, RPMI-8226 (Multiple Myeloma) ([4]; 25 ug/mL)	percent inhibition, C8161 (Melanoma) ([5]; 1 ug/mL)	percent inhibition, C8161 (Melanoma) ([5]; 10 ug/mL)	percent inhibition, C8161 (Melanoma) ([5]; 25 ug/mL)	percent inhibition, PC-3 ML (Prostrate) ([6]; 1 ug/mL)	percent inhibition, PC-3 ML (Prostrate) ([6]; 10 ug/mL)	percent inhibition, PC-3 ML (Prostrate) ([6]; 25 ug/mL)	IC50 [7] [µM]	IC50 [8] [µM]	IC50 [9] [µM]	IC50 [10] [µM]
CN(C)c1cc([N+](=O)[O-])c(O)c2c1CC1CC3C(N(C)C)C(O)=C(C(N)=O)C(=O)C3(O)C(O)=C1C2=O (centres unmarked) [Compound 4, 7-Dimethylamino-6-demethyl-6-deoxy-9-nitrotetracycline H2SO4]	61	409	5%	6%	2%	+4%	+5%	+14%	27^B percent	24^B percent	17%	10%	+8%	3%	219	421	36	278
CN(C)c1cc(N)c(O)c2c1CC1CC3C(N(C)C)C(O)=C(C(N)=O)C(=O)C3(O)C(O)=C1C2=O (centres unmarked) [Compound 7, 9-Amino-7-dimethylamino-6-demethyl-6-deoxytetracycline H2SO4]	> 1000		+18%	+41^B percent	+27%	+14^B percent	12%	+2%	7%	14%	16%	0%	0%	3%	300	> 1000	64	335
CC1c2ccc([N+]#N)c(O)c2C(=O)C2=C(O)C3(O)C(=O)C(C(N)=O)=C(O)C(N(C)C)C3C(O)C21 (centres unmarked) [Compound 11, 6-Deoxy-5-hydroxytetracycline-9-diazonium H2SO4]	46	427	6%	15%	36^B percent				16%	46^B percent	41^B percent	+3%	0%	36^B percent	270	> 1000	96	> 1000
C[C@H]1c2c(N)ccc(O)c2C(=O)C2=C(O)[C@]3(O)C(=O)C(C(N)=O)=C(O)[C@@H](N(C)C)[C@@H]3[C@@H](O)[C@@H]21.O=S(=O)(O)O [Compound 12, 7-Amino-6-deoxy-5-hydroxytetracycline H2SO4]	> 1000	> 1000							+11%	+13%	+12%					> 1000	270	503
CC1c2c(N(C)C)ccc(O)c2C(=O)C2=C(O)C3(O)C(=O)C(C(N)=O)=C(O)C(N(C)C)C3C(O)C21 (centres unmarked) [Compound 15, 7-Dimethylamino-6-deoxy-5-hydroxy-tetracycline H2SO4]	768	> 1000													738	234	402	716
CC(=O)Nc1ccc2c(c1O)C(=O)C1=C(O)C3(O)C(=O)C(C(N)=O)=C(O)C(N(C)C)C3C(O)C1C2C (centres unmarked) [Compound 16, 9-Acetamido-6-deoxy-5-hydroxytetracycline H2SO4]	715	452													> 1000	215	215	569
CC1c2c(N)cc(C(C)(C)C)c(O)c2C(=O)C2=C(O)C3(O)C(=O)C(C(N)=O)=C(O)CC3C(O)C21.O=S(=O)(O)O (centres unmarked) [Compound 49, 7-Amino-9-tertbutyl-4-dedimethyl-6-deoxy-5-hydroxy-tetracycline-H2SO4]	87	372	6%	+5%	+1%	11%	+2%	15%	27^B percent	7%	30^B percent	4%	+5%	6%	141	1570	489	
CC1c2c([N+]#N)cc(C(C)(C)C)c(O)c2C(=O)C2=C(O)C3(O)C(=O)C(C(N)=O)=C(O)CC3C(O)C21 (centres unmarked) [Compound 50, 4-Dedimethylamino-9-tertbutyl-6-deoxy-5-hydroxytetracycline-7-diazonium H2SO4]	40	211	7%	0%	2%	+14%	+8%	+13%	5%	+2%	1%	+14%	+17%	+10%	48	2530	34	
